Source: ChEMBL document CHEMBL1131675, “A new anti-tubulin agent containing the benzo[b]thiophene ring system” (1999)

Key:
P388 = experiment: Inhibition of murine P388 lymphocytic leukemia cell proliferation; assay type: functional; details: Mus musculus, read-out: ED50 (the source's name)
[1] = biological target: Tubulin alpha chain (Sus scrofa) (UniProt P02550); experiment: Percentage control on Tubulin- Dependent GTP hydrolysis was evaluated at 10 micro M concentration; assay type: functional; parameters: scale not given: the % may be the effect or the level left
[2] = biological target: Tubulin alpha chain (Sus scrofa) (UniProt P02550); experiment: Percentage control on Tubulin- Dependent GTP hydrolysis was evaluated at 50 micro M concentration; assay type: functional; parameters: scale not given: the % may be the effect or the level left
[3] = biological target: Tubulin alpha chain (Sus scrofa) (UniProt P02550); experiment: Percentage control on Tubulin-Dependent GTP hydrolysis was evaluated at 50 uM concentration; assay type: functional; parameters: scale not given: the % may be the effect or the level left
[4] = biological target: Tubulin alpha chain (Sus scrofa) (UniProt P02550); experiment: Percentage inhibition of [3H]colchicine binding to tubulin was evaluated at 50 uM concentration
[5] = biological target: Tubulin alpha chain (Sus scrofa) (UniProt P02550); experiment: Percentage control on Tubulin-Dependent GTP hydrolysis was evaluated at 10 uM concentration; assay type: functional; parameters: scale not given: the % may be the effect or the level left

Tubulin alpha chain (Sus scrofa), sequence (P02550 whole entry, looked up): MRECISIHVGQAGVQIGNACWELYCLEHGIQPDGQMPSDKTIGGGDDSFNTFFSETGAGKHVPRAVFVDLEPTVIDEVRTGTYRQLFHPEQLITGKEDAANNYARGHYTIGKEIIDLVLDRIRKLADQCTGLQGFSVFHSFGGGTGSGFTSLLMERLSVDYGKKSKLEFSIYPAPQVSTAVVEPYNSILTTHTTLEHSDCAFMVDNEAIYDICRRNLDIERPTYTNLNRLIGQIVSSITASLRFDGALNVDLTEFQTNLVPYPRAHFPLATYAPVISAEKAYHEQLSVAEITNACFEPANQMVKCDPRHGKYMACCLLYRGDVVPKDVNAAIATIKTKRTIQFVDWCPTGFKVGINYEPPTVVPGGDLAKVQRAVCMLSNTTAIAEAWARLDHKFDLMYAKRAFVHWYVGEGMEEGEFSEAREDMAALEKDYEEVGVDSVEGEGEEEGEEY

| Compound | EC50 (P388) | Control [1] | Control [2] | also measured |
| --- | --- | --- | --- | --- |
| COc1ccc(-c2sc3cc(OC)ccc3c2C(=O)c2cc(OC)cc(OC)c2)cc1 | > 100 µg/mL | – | – | – |
| COc1ccc(-c2sc3cc(OC)ccc3c2C(=O)c2c(OC)cccc2OC)cc1 | > 100 µg/mL | – | – | – |
| COc1ccc(/C=C\c2cc(OC)c(OC)c(OC)c2)cc1O | – | 161% | 160% | – |
| COc1cc([C@@H]2c3cc4c(cc3[C@H](O)[C@H]3COC(=O)[C@H]23)OCO4)cc(OC)c1OC | – | 43% | 31% | – |
| COc1ccc(-c2sc3cc(OC)ccc3c2C(=O)c2cc(OC)c(O)c(OC)c2)cc1 | > 100 µg/mL | – | – | – |
| COc1ccc(-c2sc3cc(OC)ccc3c2C(=O)c2cc(OC)c(OC)c(OC)c2)cc1 | – | – | – | Control [3]: 135%; inhibition [4]: 28%; Control [5]: 122% |
